In patent publication US20260317324A1, “BIFUNCTIONAL COMPOUNDS FOR DEGRADING BRAF VIA UBIQUITIN PROTEOSOME PATHWAY” (Nurix Therapeutics, Inc., priority 2023, published 2026):

Key:
Format in all cases: cell-based
BRAF V600E = biological target: T1, BRAF V600E (Homo sapiens, UniProt P15056, V600E); assay: BRAF HiBiT degradation assay, C-terminal HiBiT-tagged BRAF V600E A375 cells (clone 1F10), Nano-Glo HiBiT Lytic assay; conditions: for Dmax: A-375
T1 construct: endogenous C-terminal HiBiT fusion tag on BRAF V600E allele; endogenous in cells; host or cells: A375 clone 1F10 (CRISPR-Cas9 knock-in of the HiBiT tag; parental A375 from ATCC)
Outline: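 Endogenous BRAF V600E-HiBiT A375 (1F10), 10,000 cells/well, 24 h preculture; cpd 11-pt, 1 μM–0.01 nM half-log, n=2, 0.2% DMSO; HiBiT lytic detection 10 min RT; DC50 = fitted conc at Y=50; Obs. Dmax vs DMSO.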

BRAF G466V = biological target: T2, BRAF G466V (Homo sapiens, UniProt P15056, G466V); assay: BRAF HiBiT degradation assay, C-terminal HiBiT-tagged BRAF G466V overexpressed in HCT-116 BRAF−/− cells (clone 8), Nano-Glo HiBiT Lytic assay
T2 construct: Horizon Discovery (HCT-116 BRAF−/− cells); host or cells: HCT-116 BRAF−/− cells, clone 8, lentiviral transduction
From the text: (§1) An A375 cell line expressing a homozygous V600E mutation was purchased from ATCC (Manassas, VA, USA). An A375 clone 1F10 cell line with an endogenous C-terminal HiBiT fusion tag on BRAF V600E allele was generated internally using CRISPR-Cas9 technology and cultured in DMEM, high glucose supplemented with 10% FBS and 1× GlutaMAX. A HCT-116 BRAF−/− cell line overexpressing the C-terminal HiBiT-tagged G466V, G469A, and D594G mutants were generated by lentiviral transduction, externally at Biosettia Inc (San Diego, CA, USA). The stably transfected cells were cultured in RPMI media supplemented with 10% FBS, 1× GlutaMAX, and 0.25 μg/ml puromycin. DMEM medium, RPMI 1640 medium, GlutaMAX, fetal bovine serum (FBS), and puromycin were purchased from Gibco (Grand Island, NY, USA). HCT-116 BRAF−/− cells were purchased from Horizon Discovery (Waterbeach, UK).
(§2) The C-terminal HiBiT tagged mutant BRAF G466V, G469A, and D594G overexpressed in HCT-116 BRAF−/− cells (monoclonal cell line, cell clones 8, 34, and 63, respectively) were seeded at the density of 3,000 cells/well in 30 μL media (RPMI supplemented with 10% FBS and 1× GlutaMAX) in white opaque 384-well plates (Corning #3570) from column 1 to column 23. Wildtype HCT-116 BRAF cells were seeded in column 24 at the same cell density in 30 μL media. Cells were incubated at 37° C. with 5% CO2 for 24 h.
(§3) Intermediate compound dilution series (5-point, ranging from 5 mM to 0.5 μM, 10-fold dilutions in DMSO) were prepared in a source plate (Beckman Coulter cat. no. 001-16128). Final compound dilution series (11-point, ranging from 1 μM to 0.01 nM, half-log dilutions in DMSO) were stamped into the assay plate (Corning #3570, column 1-11 and 12-22) using the Echo Acoustic Liquid Handler (Beckman Coulter). Each compound was plated in duplicate, and the total volume of compound DMSO solution was 60 nL/well (0.2% final DMSO concentration). DMSO was included in wells A23-L23 and A24-L24. The DMSO-treated HiBiT-tagged samples served as Negative Control (NC) and the DMSO-treated wildtype samples served as Background Control (BC) for the HiBiT assay.
(§4) HiBiT signal was measured by a Nano-Glo HiBiT Lytic assay (Promega cat. no. N3050). HiBiT lytic detection reagent (Nano-Glo HiBiT Lytic Buffer with 1:50 Nano-Glo HiBiT Lytic Substrate and 1:100 LgBiT Protein, 40 μL) was added using Bravo. The mixture was incubated at room temperature, in the dark, and with gentle shaking for 10 min. Luminesce units (LU) were read on an EnVision plate reader 2105 (Perkin Elmer).
(§5) Percent protein remaining and viability remaining per sample were calculated as follows: […]
(§6) % Protein remaining values were plotted as a function of compound concentration. XC50 (DC50) values were determined by fitting curves using the following equation:
(§7) For the HiBiT degradation assay, the key parameters reported include: • The dose of compound that produces 50% degradation (DC50 at 50%): • DC50 at 50%: the Fitted X value (Conc.) at Y=50 (response) • Observed Dmax (Obs. Dmax) is the percentage protein degraded at maximal compound effect relative to DMSO-treated control: […]

BRAF G469A = biological target: T3, BRAF G469A (Homo sapiens, UniProt P15056, G469A); assay: BRAF HiBiT degradation assay, C-terminal HiBiT-tagged BRAF G469A overexpressed in HCT-116 BRAF−/− cells (clone 34), Nano-Glo HiBiT Lytic assay
T3 construct: Horizon Discovery (HCT-116 BRAF−/− cells); host or cells: HCT-116 BRAF−/− cells, clone 34, lentiviral transduction
From the text: as §1, §2, §3, §4, §5, §6, §7

BRAF D594G = biological target: T4, BRAF D594G (Homo sapiens, UniProt P15056, D594G); assay: BRAF HiBiT degradation assay, C-terminal HiBiT-tagged BRAF D594G overexpressed in HCT-116 BRAF−/− cells (clone 63), Nano-Glo HiBiT Lytic assay
T4 construct: Horizon Discovery (HCT-116 BRAF−/− cells); host or cells: HCT-116 BRAF−/− cells, clone 63, lentiviral transduction
From the text: as §1, §2, §3, §4, §5, §6, §7

[1] = A375 (BRAF V600E), DC50 at 50%: fitted conc. at Y=50
[2] = A375 (BRAF V600E), percentage protein degraded at maximal compound effect relative to DMSO
[3] = BRAF G466V, DC50 at 50%: fitted conc. at Y=50
[4] = HCT-116, BRAF G466V, percentage protein degraded at maximal compound effect relative to DMSO
[5] = Class 2, BRAF G469A, DC50 at 50%: fitted conc. at Y=50
[6] = HCT-116, Class 2, BRAF G469A, percentage protein degraded at maximal compound effect relative to DMSO
[7] = BRAF D594G, DC50 at 50%: fitted conc. at Y=50
[8] = HCT-116, BRAF D594G, percentage protein degraded at maximal compound effect relative to DMSO
[9] = A375 (BRAF V600E, Class 1), DC50 at 50% degradation
[10] = A375 (BRAF V600E, Class 1), observed Dmax, % protein degraded relative to DMSO control
[11] = BRAF G466V (Class 3), HCT-116 BRAF−/− cells, DC50 at 50% degradation
[12] = BRAF G466V (Class 3), HCT-116 BRAF−/− cells, observed Dmax relative to DMSO control
[13] = BRAF G469A (Class 2), HCT-116 BRAF−/− cells, DC50 at 50% degradation
[14] = BRAF G469A (Class 2), HCT-116 BRAF−/− cells, observed Dmax relative to DMSO control
[15] = BRAF D594G (Class 3), HCT-116 BRAF−/− cells, DC50 at 50% degradation
[16] = BRAF D594G (Class 3), HCT-116 BRAF−/− cells, observed Dmax relative to DMSO control

T1 sequence (P15056 whole entry V600E, the tested form may be a part): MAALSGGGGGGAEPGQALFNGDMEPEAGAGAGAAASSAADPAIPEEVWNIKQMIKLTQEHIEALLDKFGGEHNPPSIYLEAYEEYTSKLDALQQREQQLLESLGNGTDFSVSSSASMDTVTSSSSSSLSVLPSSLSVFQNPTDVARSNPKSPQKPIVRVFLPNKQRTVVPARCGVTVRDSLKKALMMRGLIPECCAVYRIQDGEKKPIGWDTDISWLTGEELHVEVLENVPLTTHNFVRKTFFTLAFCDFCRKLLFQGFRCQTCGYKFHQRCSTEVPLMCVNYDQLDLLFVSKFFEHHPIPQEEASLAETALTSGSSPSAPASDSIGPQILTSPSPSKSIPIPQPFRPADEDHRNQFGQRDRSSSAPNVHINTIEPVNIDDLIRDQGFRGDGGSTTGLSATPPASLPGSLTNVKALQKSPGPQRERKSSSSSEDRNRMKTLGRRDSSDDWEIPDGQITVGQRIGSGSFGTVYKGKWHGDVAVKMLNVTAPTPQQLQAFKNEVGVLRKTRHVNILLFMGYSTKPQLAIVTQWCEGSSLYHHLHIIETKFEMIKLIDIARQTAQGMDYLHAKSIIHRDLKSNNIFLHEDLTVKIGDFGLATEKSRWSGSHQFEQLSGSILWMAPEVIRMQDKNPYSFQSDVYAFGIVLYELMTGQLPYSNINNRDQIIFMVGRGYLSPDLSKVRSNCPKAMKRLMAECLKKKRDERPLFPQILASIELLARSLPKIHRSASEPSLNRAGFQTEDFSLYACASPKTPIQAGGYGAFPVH
T2 sequence (P15056 whole entry G466V): as the sequence (P15056 whole entry V600E, the tested form may be a part) above, with G466V, E600V counted along it
T3 sequence (P15056 whole entry G469A): as the sequence (P15056 whole entry V600E, the tested form may be a part) above, with G469A, E600V counted along it
T4 sequence (P15056 whole entry D594G): as the sequence (P15056 whole entry V600E, the tested form may be a part) above, with D594G, E600V counted along it

SMILES | DC50 (BRAF V600E; [1]) | Dmax (BRAF V600E; [2]) | DC50 (BRAF G466V; [3]) | Dmax (BRAF G466V; [4]) | DC50 (BRAF G469A; [5]) | Dmax (BRAF G469A; [6]) | DC50 (BRAF D594G; [7]) | Dmax (BRAF D594G; [8]) | DC50 (BRAF V600E; [9]) | Dmax (BRAF V600E; [10]) | DC50 (BRAF G466V; [11]) | Dmax (BRAF G466V; [12]) | DC50 (BRAF G469A; [13]) | Dmax (BRAF G469A; [14]) | DC50 (BRAF D594G; [15]) | Dmax (BRAF D594G; [16])
CCCS(=O)(=O)Nc1cccc(-c2nc(-c3ccc(N4CCN(CC5CCN(c6ccc(C7CCC(=O)NC7=O)cn6)CC5)CC4)cc3)sc2-c2ccnc(N)n2)c1F (racemic) [Compound 187, Rac-N-{3-[5-(2-aminopyrimidin-4-yl)-2-(4-{4-[(1-{5-[(3R)-2,6-dioxopiperidin-3-yl]pyridin-2-yl}piperidin-4-yl)methyl]piperazin-1-yl}phenyl)-1,3-thiazol-4-yl]-2-fluorophenyl}propane-1-sulfonamide] | < 10 nM | > 70% | 10 to 50 nM | 30 to 70% | 10 to 50 nM | 30 to 70% | < 10 nM | 30 to 70% | – | – | – | – | – | – | – | –
CCCS(=O)(=O)Nc1cccc(-c2nc(C(C)(C)C)sc2-c2ccnc(Nc3cccc(OC4CCN(C[C@H]5CC[C@H](Oc6ccc(C7CCC(=O)NC7=O)cc6)CC5)CC4)c3)n2)c1F (mixture of isomers) [Compound 72, N-(3-(2-(tert-butyl)-5-(2-((3-((1-(((1R,4r)-4-(4-((RS)-2,6-dioxopiperidin-3-yl)phenoxy)cyclohexyl)methyl)piperidin-4-yl)oxy)phenyl)amino)pyrimidin-4-yl)thiazol-4-yl)-2-fluorophenyl)propane-1-sulfonamide] | 10 to 50 nM | 30 to 70% | > 500 nM | 30 to 70% | > 500 nM | < 30% | > 500 nM | 30 to 70% | – | – | – | – | – | – | – | –
O=C1CCN(c2ccc(N3CCC(CN4CCN(c5ccc(-n6cc(-c7cc(Cl)cc(NS(=O)(=O)N8CCCC8)c7F)c(-c7ccncc7)n6)cc5)CC4)CC3)nc2)C(=O)N1 [Compound 355, N-[5-chloro-3-(1-{4-[4-({1-[5-(2,4-dioxo-1,3-diazinan-1-yl)pyridin-2-yl]piperidin-4-yl}methyl)piperazin-1-yl]phenyl}-3-(pyridin-4-yl)-1H-pyrazol-4-yl)-2-fluorophenyl]pyrrolidine-1-sulfonamide] | – | – | – | – | – | – | – | – | < 10 nM | > 70% | < 10 nM | > 70% | 10 to 50 nM | 30 to 70% | < 10 nM | 30 to 70%
CCN(C)S(=O)(=O)Nc1cc(F)cc(-c2cn(-c3ccc(N4CCN(CC5CCN(c6ccc([C@H]7CCC(=O)NC7=O)cc6)CC5)CC4)cc3)nc2-c2ccncc2)c1F [Compound 377, (3R)-3-(4-{4-[(4-{4-[4-(3-{[ethyl(methyl)sulfamoyl]amino}-2,5-difluorophenyl)-3-(pyridin-4-yl)-1H-pyrazol-1-yl]phenyl}piperazin-1-yl)methyl]piperidin-1-yl}phenyl)piperidine-2,6-dione] | – | – | – | – | – | – | – | – | 10 to 50 nM | > 70% | 10 to 50 nM | > 70% | < 10 nM | 30 to 70% | 10 to 50 nM | 30 to 70%
O=C1CC[C@H](c2ccc(N3CCC(CN4CCN(c5ccc(-n6cc(-c7cc(Cl)cc(NS(=O)(=O)C8CCCC8)c7F)c(-c7ccncc7)n6)cc5)CC4)CC3)cc2)C(=O)N1 [Compound 374, N-{5-chloro-3-[1-(4-{4-[(1-{4-[(3R)-2,6-dioxopiperidin-3-yl]phenyl}piperidin-4-yl)methyl]piperazin-1-yl}phenyl)-3-(pyridin-4-yl)-1H-pyrazol-4-yl]-2-fluorophenyl}cyclopentanesulfonamide] | – | – | – | – | – | – | – | – | < 10 nM | > 70% | 10 to 50 nM | > 70% | 10 to 50 nM | 30 to 70% | 10 to 50 nM | 30 to 70%
O=C1CC[C@H](c2ccc(N3CCC(CN4CCN(c5ccc(-n6cc(-c7cc(Cl)cc(NS(=O)(=O)N8CCCC8)c7F)c(-c7ccncc7)n6)cc5)CC4)CC3)cc2)C(=O)N1 [Compound 282, N-{5-chloro-3-[1-(4-{4-[(1-{4-[(3R)-2,6-dioxopiperidin-3-yl]phenyl}piperidin-4-yl)methyl]piperazin-1-yl}phenyl)-3-(pyridin-4-yl)-1H-pyrazol-4-yl]-2-fluorophenyl}pyrrolidine-1-sulfonamide] | – | – | – | – | – | – | – | – | < 10 nM | > 70% | < 10 nM | > 70% | < 10 nM | 30 to 70% | < 10 nM | 30 to 70%
CCCS(=O)(=O)Nc1cccc(-c2nc(C3CCN(C(=O)CC4CCN(C5CCN(c6ccc7c(c6)C(=O)N(C6CCC(=O)NC6=O)C7=O)CC5)CC4)CC3)sc2-c2ccnc(N)n2)c1F (racemic) [Compound 250, Rac-N-{3-[5-(2-aminopyrimidin-4-yl)-2-{1-[2-(1′-{2-[(3R)-2,6-dioxopiperidin-3-yl]-1,3-dioxo-2,3-dihydro-1H-isoindol-5-yl}-[1,4′-bipiperidin]-4-yl)acetyl]piperidin-4-yl}-1,3-thiazol-4-yl]-2-fluorophenyl}propane-1-sulfonamide] | – | – | – | – | – | – | – | – | 50 to 500 nM | > 70% | > 500 nM | 30 to 70% | > 500 nM | < 30% | > 500 nM | 30 to 70%
CCCS(=O)(=O)Nc1cccc(-c2nc(C(C)(C)C)sc2-c2ccnc(Nc3ccc(N4CCN(C(=O)CC5(O)CCN(c6ccc(NC7CCC(=O)NC7=O)cc6F)CC5)CC4)c(F)c3)n2)c1F (racemic) [Compound 52, Rac-N-{3-[2-tert-butyl-5-(2-{[4-(4-{2-[1-(4-{[(3R)-2,6-dioxopiperidin-3-yl]amino}-2-fluorophenyl)-4-hydroxypiperidin-4-yl]acetyl}piperazin-1-yl)-3-fluorophenyl]amino}pyrimidin-4-yl)-1,3-thiazol-4-yl]-2-fluorophenyl}propane-1-sulfonamide] | < 10 nM | > 70% | > 500 nM | < 30% | > 500 nM | < 30% | > 500 nM | < 30% | – | – | – | – | – | – | – | –
